Measured values taken from patent US20240132431A1, “METHOD FOR ALKYLATING ACIDIC FUNCTIONAL GROUP” (Chugai Seiyaku Kabushiki Kaisha, priority 2021, published 2024).

Target: T1, Bcl-2 protein (Recombinant Human Bcl-2 Protein) (Homo sapiens, UniProt P10415)
T1 construct: purchased Novus NBP2-34889
Assay: Binding evaluation of mixture library compounds to Bcl-2 using AS-MS (affinity selection mass spectrometry)
Conditions: for ASMS ratio (%) n = 1 / ASMS ratio (%) n = 2: ASMS Ratio(%)=(A−C)/B×100; for ASMS ratio (%) n = 1: replicate n = 1; for ASMS ratio (%) n = 2: replicate n = 2
How it was run: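 Bcl-2 binding is scored from LC/MS signal retained with protein through gel-filtration spin columns, normalised to unfiltered and protein-free controls. Incubation: 20 μM protein, […] per compound, 1 h, 23° C.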

[1] = AS-MS, mixture of 1200 compounds, Bcl-2
[2] = AS-MS on the mixture of 1200 library compounds

T1 sequence (P10415 whole entry): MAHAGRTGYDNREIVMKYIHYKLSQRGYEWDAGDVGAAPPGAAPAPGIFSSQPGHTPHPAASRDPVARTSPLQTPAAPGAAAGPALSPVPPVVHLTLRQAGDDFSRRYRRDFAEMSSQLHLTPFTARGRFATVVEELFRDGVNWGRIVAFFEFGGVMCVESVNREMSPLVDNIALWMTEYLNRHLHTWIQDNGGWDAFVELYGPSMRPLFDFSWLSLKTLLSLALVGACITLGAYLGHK

For `CCOc1cncc(-c2cc(CN3CCN(c4ccc(C(=O)NCC56CC7CC(CC(C7)C5)C6)cc4)CC3)cc(OCC)c2)c1` [B1A056-01, N-(1-Adamantylmethyl)-4-[4-[[3-ethoxy-5-(5-ethoxypyridin-3-yl)phenyl]methyl]piperazin-1-yl]benzamide], the “ASMS ratio (%) n = 1” value [1] was 9.7% and the “ASMS ratio (%) n = 2” value [1] was 4.0%.
With `CCOc1cccc(-c2csc(C(=O)N3CCN(c4ccc(C(=O)N(C)CC56CC7CC(CC(C7)C5)C6)cc4)CC3)c2)c1` [B3A023-01, N-(1-Adamantylmethyl)-4-[4-[4-(3-ethoxyphenyl)thiophene-2-carbonyl]piperazin-1-yl]-N-methylbenzamide] the “ASMS ratio (%) n = 1” value [2] was 2.4% and the “ASMS ratio (%) n = 2” value [2] was 1.7%.
With `CCOc1cncc(-c2cc(CN3CCN(c4ccc(C(=O)NCC56CC7CC(CC(C7)C5)C6)nn4)CC3)cc(C(F)(F)F)c2)c1` [B1A088-01, N-(1-Adamantylmethyl)-6-[4-[[3-(5-ethoxypyridin-3-yl)-5-(trifluoromethyl)phenyl]methyl]piperazin-1-yl]pyridazine-3-carboxamide] the “ASMS ratio (%) n = 1” value [1] was 18.7% and the “ASMS ratio (%) n = 2” value [1] was −7.1%.
With `CCOc1cncc(-c2cc(OC)c(CN3CCN(c4ccc(C(=O)N(CC)CC)nn4)CC3)c(OC)c2)c1` [B4J086-01, 6-[4-[[4-(5-Ethoxypyridin-3-yl)-2,6-dimethoxyphenyl]methyl]piperazin-1-yl]-N,N-diethylpyridazine-3-carboxamide] the “ASMS ratio (%) n = 1” value (AS-MS, mixture library, Bcl-2) was 0.0% and the “ASMS ratio (%) n = 2” value (AS-MS, mixture library, Bcl-2) was 0.0%.
With `CCOc1cccc(-c2ccc(C(=O)N3CCN(c4ccc(C(=O)Nc5ccc(OC)cc5)nn4)CC3)c3ccccc23)c1` [B1O013-01, 6-[4-[4-(3-Ethoxyphenyl)naphthalene-1-carbonyl]piperazin-1-yl]-N-(4-methoxyphenyl)pyridazine-3-carboxamide] the “ASMS ratio (%) n = 1” value [2] was 2.2% and the “ASMS ratio (%) n = 2” value [2] was −4.0%.
In the case of “4-[4-[[3-(3-Ethoxyphenyl)-5-(trifluoromethyl)phenyl]methyl]piperazin-1-yl]-N-propylbenzamide [B1M026-01]”, the “ASMS ratio (%) n = 1” value [1] is reported as 0.9% and the “ASMS ratio (%) n = 2” value [1] is reported as 0.9%.
For `CCOc1cccc(-c2cc(CN3CCN(c4ccc(C(=O)NS(=O)(=O)c5ccc(NCCSc6ccccc6)c([N+](=O)[O-])c5)cc4)CC3)cc(OCC)c2)c1` [B2Q055-01, 4-[4-[[3-Ethoxy-5-(3-ethoxyphenyl)phenyl]methyl]piperazin-1-yl]-N-[3-nitro-4-(2-phenylsulfanylethylamino)phenyl]sulfonylbenzamide], the “ASMS ratio (%) n = 1” value (AS-MS, mixture library, Bcl-2) was 9.0% and the “ASMS ratio (%) n = 2” value (AS-MS, mixture library, Bcl-2) was −8.3%.
`CCOc1cncc(-c2ccccc2CN2CCN(c3ccc(C(=O)N(CC)CC)cc3)CC2)c1` [B4J046-01] was tested, and the “ASMS ratio (%) n = 1” value [2] was 0.0% and the “ASMS ratio (%) n = 2” value [2] was 0.0%.
For `CCOc1cccc(-c2ccc(CN3CCN(c4ccc(C(=O)N(CC)CC)nn4)CC3)c(OC)c2)c1` [B4J079-01, 6-[4-[[4-(3-Ethoxyphenyl)-2-methoxyphenyl]methyl]piperazin-1-yl]-N,N-diethylpyridazine-3-carboxamide], the “ASMS ratio (%) n = 1” value (AS-MS, mixture library, Bcl-2) was 0.0% and the “ASMS ratio (%) n = 2” value (AS-MS, mixture library, Bcl-2) was 0.0%.
With `CCOc1cccc(-c2cc(CN3CCN(c4ccc(C(=O)NS(=O)(=O)c5ccc(NCCSc6ccccc6)c(C(F)(F)F)c5)cc4)CC3)cc(OCC)c2)c1` [B2R055-01, 4-[4-[[3-Ethoxy-5-(3-ethoxyphenyl)phenyl]methyl]piperazin-1-yl]-N-[4-(2-phenylsulfanylethylamino)-3-(trifluoromethyl)phenyl]sulfonylbenzamide] the “ASMS ratio (%)” value (n = 1) was −3.3% and the “ASMS ratio (%)” value (n = 2) was 6.3%.
In the case of `CCOc1cncc(-c2ccc(CN3CCN(c4ccc(C(=O)NS(=O)(=O)CCC(F)(F)F)cc4)CC3)c3ccccc23)c1` [B2N066-01, 4-[4-[[4-(5-Ethoxypyridin-3-yl)naphthalen-1-yl]methyl]piperazin-1-yl]-N-(3,3,3-trifluoropropylsulfonyl)benzamide], the “ASMS ratio (%)” value (n = 1) is reported as 0.0% and the “ASMS ratio (%)” value (n = 2) is reported as 0.0%.
For `CCOc1cccc(-c2cc(CN3CCN(c4ccc(C(=O)NS(=O)(=O)CC56CC7CC(CC(C7)C5)C6)cc4)CC3)cc(OC(F)(F)F)c2)c1` [B2A063-01, N-(1-Adamantylmethylsulfonyl)-4-[4-[[3-(3-ethoxyphenyl)-5-(trifluoromethoxy)phenyl]methyl]piperazin-1-yl]benzamide], the “ASMS ratio (%) n = 1” value (AS-MS, mixture library, Bcl-2) was 0.5% and the “ASMS ratio (%) n = 2” value (AS-MS, mixture library, Bcl-2) was 3.3%.
“6-[4-[3-(3-Ethoxyphenyl)-5-(trifluoromethyl)benzoyl]piperazin-1-yl]-N-propylpyridazine-3-carboxamide [B1M089-01]” was tested, and the “ASMS ratio (%) n = 1” value [2] was 3.9% and the “ASMS ratio (%) n = 2” value [2] was 0.2%.
In the case of `CCOc1cccc(C#Cc2ccccc2C(=O)N2CCN(c3ccc(C(=O)NCC(F)(F)F)nn3)CC2)c1` [B1K007-01, 6-[4-[2-[2-(3-Ethoxyphenyl)ethynyl]benzoyl]piperazin-1-yl]-N-(2,2,2-trifluoroethyl)pyridazine-3-carboxamide], the “ASMS ratio (%) n = 1” value [1] is reported as 0.0% and the “ASMS ratio (%) n = 2” value [1] is reported as 1.3%.
In the case of “4-[4-[[2-(3-Ethoxyphenyl)phenyl]methyl]piperazin-1-yl]-N-propylbenzamide [B1M040-01]”, the “ASMS ratio (%) n = 1” value [1] is reported as −0.3% and the “ASMS ratio (%) n = 2” value [1] is reported as 0.0%.
In the case of `CCOc1cccc(-c2cnn(-c3cc(C(=O)N4CCN(c5ccc(C(=O)NS(=O)(=O)c6ccc(NCCSc7ccccc7)c(C(F)(F)F)c6)cc5)CC4)cc(C(F)(F)F)c3)c2)c1` [B2R043-01, 4-[4-[3-[4-(3-Ethoxyphenyl)pyrazol-1-yl]-5-(trifluoromethyl)benzoyl]piperazin-1-yl]-N-[4-(2-phenylsulfanylethylamino)-3-(trifluoromethyl)phenyl]sulfonylbenzamide], the “ASMS ratio (%)” value (n = 1) is reported as 3.4% and the “ASMS ratio (%)” value (n = 2) is reported as −9.0%.
With `CCOc1cccc(-c2cnn(-c3cc(C(=O)N4CCN(c5ccc(C(=O)NCC67CC8CC(CC(C8)C6)C7)cc5)CC4)cc(C(F)(F)F)c3)c2)c1` [B1A043-01, N-(1-Adamantylmethyl)-4-[4-[3-[4-(3-ethoxyphenyl)pyrazol-1-yl]-5-(trifluoromethyl)benzoyl]piperazin-1-yl]benzamide] the “ASMS ratio (%) n = 1” value [1] was 3.8% and the “ASMS ratio (%) n = 2” value [1] was −2.9%.
For `CCOc1cccc(-c2ccc(CN3CCN(c4ccc(C(=O)NS(=O)(=O)c5ccc(NCCSc6ccccc6)c(C(F)(F)F)c5)cc4)CC3)cc2F)c1` [B2R051-01, 4-[4-[[4-(3-Ethoxyphenyl)-3-fluorophenyl]methyl]piperazin-1-yl]-N-[4-(2-phenylsulfanylethylamino)-3-(trifluoromethyl)phenyl]sulfonylbenzamide], the “ASMS ratio (%)” value (n = 1) was 12.7% and the “ASMS ratio (%)” value (n = 2) was −1.8%.
For “4-[4-[4-(5-Ethoxypyridin-3-yl)thiophene-2-carbonyl]piperazin-1-yl]-N-propylbenzamide [B1M084-01]”, the “ASMS ratio (%) n = 1” value [2] was 0.0% and the “ASMS ratio (%) n = 2” value [2] was 0.0%.
With “4-[4-[[4-(3-Ethoxyphenyl)-2-methoxyphenyl]methyl]piperazin-1-yl]-N-propylbenzamide [B1M093-01]” the “ASMS ratio (%) n = 1” value [2] was 0.0% and the “ASMS ratio (%) n = 2” value [2] was 0.0%.
In the case of `CCOc1cncc(-c2csc(CN3CCN(c4ccc(C(=O)NS(=O)(=O)CC56CC7CC(CC(C7)C5)C6)cc4)CC3)c2)c1` [B2A068-01, N-(1-Adamantylmethylsulfonyl)-4-[4-[[4-(5-ethoxypyridin-3-yl)thiophen-2-yl]methyl]piperazin-1-yl]benzamide], the “ASMS ratio (%) n = 1” value (AS-MS, mixture library, Bcl-2) is reported as 0.0% and the “ASMS ratio (%) n = 2” value (AS-MS, mixture library, Bcl-2) is reported as 0.0%.
In the case of `CCOc1cccc(C#Cc2cc(C(=O)N3CCN(c4ccc(C(=O)NS(=O)(=O)CC56CC7CC(CC(C7)C5)C6)cc4)CC3)cc(C(F)(F)F)c2)c1` [B2A041-01, N-(1-Adamantylmethylsulfonyl)-4-[4-[3-[2-(3-ethoxyphenyl)ethynyl]-5-(trifluoromethyl)benzoyl]piperazin-1-yl]benzamide], the “ASMS ratio (%) n = 1” value (AS-MS, mixture library, Bcl-2) is reported as 0.0% and the “ASMS ratio (%) n = 2” value (AS-MS, mixture library, Bcl-2) is reported as −3.7%.
For `CCOc1cncc(-c2cnn(-c3cc(C(=O)N4CCN(c5ccc(C(=O)NS(=O)(=O)CCC(F)(F)F)nn5)CC4)cc(C(F)(F)F)c3)c2)c1` [B2N022-01, 6-[4-[3-[4-(5-Ethoxypyridin-3-yl)pyrazol-1-yl]-5-(trifluoromethyl)benzoyl]piperazin-1-yl]-N-(3,3,3-trifluoropropylsulfonyl)pyridazine-3-carboxamide], the “ASMS ratio (%)” value (n = 1) was 0.0% and the “ASMS ratio (%)” value (n = 2) was 0.0%.
With `CCOc1cccc(-c2ccc(C(=O)N3CCN(c4ccc(C(=O)N(C)CC56CC7CC(CC(C7)C5)C6)cc4)CC3)c3ccccc23)c1` [B3A035-01, N-(1-Adamantylmethyl)-4-[4-[4-(3-ethoxyphenyl)naphthalene-1-carbonyl]piperazin-1-yl]-N-methylbenzamide] the “ASMS ratio (%) n = 1” value [2] was 9.7% and the “ASMS ratio (%) n = 2” value [2] was 4.4%.
In the case of “4-[4-[1-[4-(3-Ethoxyphenyl)-2-fluorophenyl]ethyl]piperazin-1-yl]-N-propylbenzamide [B1M005-01]”, the “ASMS ratio (%) n = 1” value [1] is reported as 0.0% and the “ASMS ratio (%) n = 2” value [1] is reported as 1.4%.
`CCOc1cccc(C#Cc2cc(C(=O)N3CCN(c4ccc(C(=O)NS(=O)(=O)C(C)(C)C)cc4)CC3)cc(C(F)(F)F)c2)c1` [B2L041-01, N-tert-Butylsulfonyl-4-[4-[3-[2-(3-ethoxyphenyl)ethynyl]-5-(trifluoromethyl)benzoyl]piperazin-1-yl]benzamide] was tested, and the “ASMS ratio (%)” value (n = 1) was 0.0%.
In the case of `CCOc1cccc(-c2cc(OC)c(CN3CCN(c4ccc(C(=O)NS(=O)(=O)CC56CC7CC(CC(C7)C5)C6)cc4)CC3)c(OC)c2)c1` [B2A059-01, N-(1-Adamantylmethylsulfonyl)-4-[4-[[4-(3-ethoxyphenyl)-2,6-dimethoxyphenyl]methyl]piperazin-1-yl]benzamide], the “ASMS ratio (%) n = 1” value (AS-MS, mixture library, Bcl-2) is reported as 0.0% and the “ASMS ratio (%) n = 2” value (AS-MS, mixture library, Bcl-2) is reported as −42.2%.
